Laboratory results: paper PMC5544777, “Kinetics and thermodynamics of the protein-ligand interactions in the riboflavin kinase activity of the FAD synthetase from Corynebacterium ammoniagenes” (Scientific Reports, 2017)
Where “and” joins values, the source holds several entries; their conditions need not be identical. Equal values may be shown once. Read-outs that look alike come from different tables or passages of the source.

Legend:
RFK module of CaFADS [1] = target: T1, RFK module of CaFADS (Corynebacterium ammoniagenes, UniProt Q59263, L183M); experiment: Isothermal titration calorimetry of binary and ternary interactions; format: binding; conditions: for Kd: read-out: Kd
T1 construct: a truncated CaFADS variant consisting in the isolated C-terminal RFK module; made in house; host or cells: E. coli BL21(DE3)
Experimental: Isothermal titration calorimetry (ITC) experiments were performed to elucidate the order in which ligands bind to the enzyme, as well as the binding inhibition effects from the thermodynamic point of view. Experiments were carried out in an AutoITC200 (MicroCal) that was thermostated at 25 °C. […] Titrations with FLV ligands of mixtures that contained the enzyme prebound with the ANP ligand were also carried out, as well as ANP titrations of mixtures of the enzyme saturated with FLV ligands. In these experiments, the titration was performed by stepwise injecting the titrating ligand. Up to 19 injections of 2 μL each were added to the calorimetric sample cell and mixed at a stirring speed of 1000 r.p.m. Ligands and protein were dissolved in 20 mM PIPES, pH 7.0, either in the presence or absence of 0.8 mM MgCl2, and degassed prior to titration. The association constant (K a), the enthalpy change (ΔH) and the binding stoichiometry (N) were obtained through a nonlinear least squares regression of the data using a homemade model for one or two independent binding sites, which was implemented in Origin 7.0 (OriginLab) as previously described, [20]. The entropic contribution (-TΔS), the Gibbs free energy (ΔG) and the dissociation constant (K d) were obtained through essential thermodynamic equations.
Experiments were performed in triplicate.

RFK module of CaFADS [2] = target: T1, RFK module of CaFADS; experiment: Steady-state RFK activity (HPLC quantification of flavins); format: biochemical
Experimental: In all cases, reactions were initiated by addition of the enzyme to a final concentration of ≈40 nM, which was followed by 1 min of incubation, and the reactions were stopped by boiling the samples at 100 °C for 5 min as previously described, [20]. The flavin composition of the supernatant was analyzed using an Alliance HPLC system (Waters) equipped with a 2707 autosampler and an HSST3 column (4.6 × 50 mm, […]; Waters) preceded by a precolumn (4.6 × 20 mm, […]; Waters) as previously described, [20]. […] All the experiments were carried out in triplicate.
Additionally, Dixon plots (1/(v 0/[e]) vs [I]) and Cornish-Bowden representations ([S]/(v 0/[e]) vs [I]) were used to reveal the type of inhibition, [43].

[3] = initial mixture RFK:FMN, 0.0 mM MgCl2
[4] = initial mixture RFK:FMN, 0.8 mM MgCl2
[5] = initial mixture RFK:RF, 0.0 mM MgCl2
[6] = initial mixture RFK:RF, 0.8 mM MgCl2
[7] = initial mixture RFK, 0.0 mM MgCl2
[8] = initial mixture RFK, 0.8 mM MgCl2
[9] = apparent, ATP varied, ~5 µM RF, [ADP] 20 μM
[10] = apparent, ATP varied, ~5 µM RF, [ADP] 50 μM
[11] = apparent, ATP varied, ~5 µM RF, [ADP] 90 μM
[12] = apparent, ATP varied, ~5 µM RF, [ADP] 170 μM

T1 sequence (Q59263 183-338 L183M): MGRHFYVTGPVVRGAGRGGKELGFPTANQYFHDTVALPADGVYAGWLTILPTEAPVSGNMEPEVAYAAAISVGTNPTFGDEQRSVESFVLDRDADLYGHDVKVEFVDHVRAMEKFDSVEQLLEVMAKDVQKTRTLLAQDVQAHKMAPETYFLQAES

Q: What does the source list for Nc1ncnc2c1ncn2[C@@H]1O[C@H](COP(=O)(O)OP(=O)(O)O)[C@@H](O)[C@H]1O [ADP]?
A: -TΔS (RFK module of CaFADS [1]; [3]): 9.3 kcal/mol; ΔG (RFK module of CaFADS [1]; [3]): -6.6 kcal/mol; ΔH (RFK module of CaFADS [1]; [3]): -15.9 kcal/mol; Kd (RFK module of CaFADS [1]; [3]): 14.8 µM; -TΔS (RFK module of CaFADS [1]; [4]): 1.8 kcal/mol; ΔG (RFK module of CaFADS [1]; [4]): -8.5 kcal/mol; ΔH (RFK module of CaFADS [1]; [4]): -10.3 kcal/mol; Kd (RFK module of CaFADS [1]; [4]): 0.6 µM; -TΔS (RFK module of CaFADS [1]; [5]): 25.4 kcal/mol; ΔG (RFK module of CaFADS [1]; [5]): -6.5 kcal/mol; ΔH (RFK module of CaFADS [1]; [5]): -31.8 kcal/mol; Kd (RFK module of CaFADS [1]; [5]): 17.1 µM; -TΔS (RFK module of CaFADS [1]; [6]): 5.2 kcal/mol; ΔG (RFK module of CaFADS [1]; [6]): -8.2 kcal/mol; ΔH (RFK module of CaFADS [1]; [6]): -13.4 kcal/mol; Kd (RFK module of CaFADS [1]; [6]): 1 µM; -TΔS (RFK module of CaFADS [1]; [7]): 0.6 kcal/mol; ΔG (RFK module of CaFADS [1]; [7]): -5.8 kcal/mol; ΔH (RFK module of CaFADS [1]; [7]): -6.4 kcal/mol; Kd (RFK module of CaFADS [1]; initial mixture RFK, 0.0 mM MgCl2, 20 mM PIPES, pH 7.0, 25 °C): 51.4 µM; -TΔS (RFK module of CaFADS [1]; [8]): 3.5 kcal/mol; ΔG (RFK module of CaFADS [1]; [8]): -6.4 kcal/mol; ΔH (RFK module of CaFADS [1]; [8]): -9.8 kcal/mol; Kd (RFK module of CaFADS [1]; initial mixture RFK, 0.8 mM MgCl2, 20 mM PIPES, pH 7.0, 25 °C): 22.1 µM; type of inhibition of the RFK activity (RFK module of CaFADS [2]; Dixon, Cornish-Bowden and Lineweaver-Burk plots): competitive inhibitor; Ki (RFK module of CaFADS [2]; global fit of Lineweaver-Burk equation, competitive inhibition, ~5 µM RF, read-out: KiADP): 17 ± 3.3 µM; K m/K i ratio (RFK module of CaFADS [2]; product inhibitor potency, KmRF/KiFMN and KmATP/KiADP): ≈ 2.4

Q: Which “-TΔS” value (RFK module of CaFADS [1]; [3]) does the source give for Nc1ncnc2c1ncn2[C@@H]1O[C@H](COP(=O)(O)OP(=O)(O)OP(=O)(O)O)[C@@H](O)[C@H]1O [ATP] here?
A: The value was 9.3 kcal/mol.

Q: And the ΔH (RFK module of CaFADS [1]; [3])?
A: Its ΔH is -17.9 kcal/mol.

Q: What about the “-TΔS” value (RFK module of CaFADS [1]; [4]) of the same compound?
A: The value was 9.3 kcal/mol.

Q: And the ΔH (RFK module of CaFADS [1]; [4])?
A: The ΔH was -19.5 kcal/mol.

Q: And the “-TΔS” value (RFK module of CaFADS [1]; [5])?
A: The value was 66.6 kcal/mol.

Q: What about the ΔH (RFK module of CaFADS [1]; [5]) of the same compound?
A: Its ΔH is -72.5 kcal/mol.

Q: What about the “-TΔS” value (RFK module of CaFADS [1]; [7]) of the same compound?
A: Its value is -1.0 kcal/mol.

Q: And the ΔH (RFK module of CaFADS [1]; [7])?
A: Its ΔH is -5.5 kcal/mol.

Q: What about the “-TΔS” value (RFK module of CaFADS [1]; [8]) of the same compound?
A: Its value is -0.6 kcal/mol.

Q: And the ΔG (RFK module of CaFADS [1]; [8])?
A: The ΔG was -6.1 kcal/mol.

Q: What about the ΔH (RFK module of CaFADS [1]; [8]) of the same compound?
A: The ΔH was -5.6 kcal/mol.

Q: And the KmATP (RFK module of CaFADS [2]; apparent, ATP varied, ~5 µM RF, [ADP] 0 μM, 25 °C, 0.8 mM MgCl2, pH 7.0)?
A: The KmATP was 60 ± 11 µM.

Q: And the k cat (RFK module of CaFADS [2]; apparent, ATP varied, ~5 µM RF, [ADP] 0 μM, 25 °C, 20 mM PIPES, 0.8 mM MgCl2, pH 7.0)?
A: The k cat was 2.67 ± 0.167 s⁻¹.

Q: What about the KmATP (RFK module of CaFADS [2]; [9]) of the same compound?
A: The KmATP was 110 ± 20 µM.

Q: And the k cat (RFK module of CaFADS [2]; [9])?
A: Its k cat is 2.67 ± 0.167 s⁻¹.

Q: And the KmATP (RFK module of CaFADS [2]; [10])?
A: Its KmATP is 140 ± 20 µM.

Q: And the k cat (RFK module of CaFADS [2]; [10])?
A: The k cat was 2.33 ± 0.167 s⁻¹.

Q: And the KmATP (RFK module of CaFADS [2]; [11])?
A: Its KmATP is 260 ± 20 µM.

Q: And the k cat (RFK module of CaFADS [2]; [11])?
A: The k cat was 2.83 ± 0.167 s⁻¹.

Q: And the KmATP (RFK module of CaFADS [2]; [12])?
A: The KmATP was 700 ± 270 µM.

Q: What about the k cat (RFK module of CaFADS [2]; [12]) of the same compound?
A: Its k cat is 2.83 ± 1 s⁻¹.

Q: And the k cat (RFK module of CaFADS [2]; global fit of Lineweaver-Burk equation, competitive inhibition by ADP, ATP varied, ~5 µM RF)?
A: The k cat was 2.17 ± 0.5 s⁻¹.

Q: And the KmATP (RFK module of CaFADS [2]; global fit of Lineweaver-Burk equation, competitive inhibition by ADP, ~5 µM RF)?
A: Its KmATP is 40 ± 20 µM and 40 ± 12 µM.
